Assay results as given in a compilation of properties of binary mixtures (doi:10.1016/j.jtice.2014.04.012).

Experiment: xn = mol fraction of the nth substance listed
Conditions: 100 kPa

CCCC[n+]1ccn(C)c1.F[B-](F)(F)F + CN(C)C=O
viscosity [mPa·s]
Conditions	x1 = 0.1008	x1 = 0.2015	x1 = 0.3022	x1 = 0.4024	x1 = 0.502	x1 = 0.6024	x1 = 0.7019	x1 = 0.8015	x1 = 0.9002	x1 = 1
303.15 K	–	2.598	4.414	7.178	11.55	17.99	26.92	39.91	58.87	85.4
313.15 K	1.298	2.198	3.585	5.632	8.76	13.13	19.05	–	38.08	–
323.15 K	1.142	1.892	–	4.587	6.849	10	–	19.37	26.77	36.27
333.15 K	1.012	1.631	2.53	3.873	5.565	7.857	–	14.43	19.11	25.46

CN(C)C=O + CCCC[n+]1ccn(C)c1.F[B-](F)(F)F
x2 = 0
Conditions	viscosity [mPa·s]
303.15 K	0.77
313.15 K	0.688
323.15 K	0.619
